Data as given in patent US5925667A, “Pyrrolidine derivative, anti-ulcer drug, and antibacterial drug” (Shiseido Co., Ltd., priority 1997, dated 1999).

How the values were obtained:
[1] = test system: isolated gastric fundic gland; assay: CAP: Acid Secretion Inhibition Test In Vitro ([14C]-aminopyrine uptake test); assay type: cell-based, male Japanese White rabbit; conditions: Oryctolagus cuniculus; final concentration 10^-5 M, histamine 10^-5 M; read-out: acid secretion inhibitory rate (CAP)
Procedure: CAP: Acid Secretion Inhibition Test In Vitro
The acid secretion inhibitory activity in a cell level is studied. It can also be used for studying the mechanism of the effect.
ii-a) Preparation of isolated gastric fundus gland suspension
First, an isolated gastric fundic gland sample was prepared. Namely, a male Japanese White rabbit (2.5 to 3 kg) was anesthetized to death with Nembutal™ and then the abdomen was incised. Immediately thereafter, the stomach was removed and, after its pyloric and cardiac antrum were severed, incised along its greater curvature into two sheets. The gastric contents adhering to the mucosal surface was washed out with ice-cooled PBS (-) and then carefully washed therein. The gastric wall was spread on a cork board with its mucosal surface facing up and the feed and mucus thereon were completely removed with sterile gauze. The mucosa was separated therefrom by a spatula and then collected in ice-cooled PBS (-). After being washed twice with PBS (-), the mucosa was minced into 2-3 mm^3 pieces by scissors. These pieces were further washed twice with a nutrient solution. The nutrient solution comprises 132.4 mM of NaCl, 5.4 mM of KCl, 5 mM of Na2 HPO4.12H2 O, 1 mM of NaH2 PO4.2H2,
1.2 mM of MgSO4, 1 mM of CaCl2, 25 mM of HEPES, 2 mg/ml of glucose, and 1 mg/ml of BSA.
Into 70 ml of the nutrient solution containing 1 mg/ml of collagenase, minced mucosal pieces were dispersed and intensely stirred in a conical flask with a stirrer at 37° C. for 40 to 60 minutes. During this period, 100% O2 was sprayed on the nutrient solution surface and the pH was appropriately measured such that it was immediately adjusted to pH 7.4, when the value was therebelow, with a base. The nutrient solution was added to the reaction solution so as to attain the total amount of about 200 ml. After being filtered through a mesh, the suspension was divisionally introduced into 50 ml centrifuge tubes and left for 15 minutes such that gastric fundic gland was deposited. The supernatant was repeatedly removed by an aspirator, dispersed in the nutrient solution, and then left such that the gastric fundic gland was washed three times. At this time, without using a pipette, the suspension was alternately introduced into two centrifuge tubes so as to effect dispersion. The number of cells was counted under microscope and adjusted to 1.6×10^6 cells/ml.
ii-b) [^14 C]-aminopyrine uptake test.
Then, [^14 C]-aminopyrine uptake test was performed. After an Eppendorf tube was weighed, 10 μl (final concentration: 10^-5 M) of histamine dissolved in the above-mentioned nutrient solution, 10 μl (final concentration: 10^-5 M) of the test compound dissolved in DMSO, and 10 μl (final concentration: 0.05 μCi/ml) of [^14 C]-aminopyrine diluted with the nutrient solution were introduced therein and then 970 μl of the isolated gastric fundic gland suspension prepared above was added thereto. Subsequently, this mixture was shaken at 37° C. for 40 minutes at 125 cycles/minute. After being centrifuged for 30 seconds, 200 μl of its supernatant was collected into a mini-vial, while the rest was removed by an aspirator. The gland pellet was completely dried as the tube with its lid being opened was kept for one night in a drying oven at 80° C. and then the lid was closed and the weight was determined at room temperature. Then 100 μl of 1N KOH was added thereto and the tube with its lid being closed was treated at 60° C. for 1 to 2 hours so as to dissolve the pellet. Then, the contents thereof were transferred to a mini-vial. Into the mini-vial containing the supernatant or gland pellet, 4 ml of Atomlite™ was added and then the radioactivity was measured by a liquid scintillation counter. Here, after the radioactivity of the gland pellet was corrected by using a sample in which 20 mM of NaSCN was added so as to cancel the hydrogen ion concentration gradient, the integration ratio of aminopyrine specifically trapped by the gland pellet was calculated. […]

HP NCTC 11637 = assay: AHP: Antibacterial Activity Test Against Helicobacter pyroli (agar dilution MIC); assay type: cell-based; conditions: NCTC11637, 168 h, 7 days

## CCN1CCCC1CNC(=O)c1ccc(OCC=C(C)C)c(OCC=C(C)C)c1 (stereo not shown) [Example 7, 1-ethyl-2-(3,4-diprenyloxybenzoylaminomethyl)pyrrolidine]
[1]
  inhibition at 10 µM: 99.7%

## CCN1CCCC1CNC(=O)c1cc(OC/C=C(\C)CCC=C(C)C)ccc1OC/C=C(\C)CCC=C(C)C (stereo not shown) [Example 10, 1-ethyl-2-(2,5-digeranyloxybenzoylaminomethyl)pyrrolidine]
[1]
  inhibition at 10 µM: 100%
HP NCTC 11637
  MIC: < 3.13 µg/mL

## CCN1CCCC1CNC(=O)c1cc(OCC=C(C)C)ccc1OCC=C(C)C (stereo not shown) [Example 6, 1-ethyl-2-(2,5-diprenyloxybenzoylaminomethyl)pyrrolidine]
[1]
  inhibition at 10 µM: 100%
